Source: patent US10800772B2 (Gilead Sciences, Inc., priority 2016, dated 2020)

Legend:
Format in all cases: cell-based, HIV-1
[1] = tested on: HIV-IIIb IN T174I BT; assay: Antiviral assay in MT4 cells, HIV-IIIb IN T174I BT virus (from viral breakthrough); conditions: Human immunodeficiency virus 1, IIIB, MT4, 120 h, read-out: T174I BT EC50, MT4 cells, HIV-IIIb IN T174I BT (viral breakthrough), 5 days, CellTiter-Glo
Procedure: (§1) Antiviral Assay in MT4 Cells
(§2) For the antiviral assay, 0.4 μL of 189X test concentration of 3-fold serially diluted compound in DMSO was added to 40 μL of cell growth medium (RPMI 1640, 10% FBS, 1% Penicillin-Streptomycin, 1% L-Glutamine, 1% HEPES) in each well of 384-well plate (10 concentrations) in quadruplicate.
(§3) 1 mL Aliquots of MT4 cells were pre-infected for 3 hours at 37° C. with 25 μL of cell growth medium (mock-infected) or a fresh 1:250 dilution of an HIV-IIIb (wildtype, IN T174I BT, or IN T174I DE) concentrated ABI stock (0.004 m.o.i.). IN T174I BT virus was derived from viral breakthrough (BT) assay as described in Mulato, A.; Hansen, D.; Thielen, A.; Porter, D.; Stepan, G.; White, K.; Daeumer, M.; Cihlar, T.; Yant, S. R. AIDS Research and Human Retrovirues, July 2016, ahead of print. doi:10.1089/aid.2016.0071. IN T174I DE virus was derived from serial passaging with dose escalation (DE) of test compound. Infected and uninfected cells were diluted in cell growth media and 35 μL (2000 cells) was added to each well of the assay plates.
(§4) Assay plates were then maintained in a humidified, 5% CO2 incubator at 37° C. After 5 days of incubation, 25 μl of 2× concentrated CellTiter-Glo™ Reagent (catalog # G7573, Promega Biosciences, Inc., Madison, Wis.) was added to each well of the assay plate. Cell lysis was carried out by incubating at room temperature for 10 minutes and then chemiluminescence was read using an Envision plate reader (PerkinElmer). EC50 values were calculated as the compound concentration that caused a 50% […] in luminescence signal, a measure of HIV-1 replication.

[2] = tested on: HIV-IIIb (wildtype); assay: Antiviral assay in MT4 cells, HIV-IIIb wildtype; conditions: Human immunodeficiency virus 1, IIIB, MT4, 120 h, read-out: WT EC50
Procedure: as §1, §2, §3, §4

[3] = tested on: HIV-IIIb IN T174I DE; assay: Antiviral assay in MT4 cells, HIV-IIIb IN T174I DE virus (from dose escalation passaging); conditions: Human immunodeficiency virus 1, IIIB, MT4, 120 h, read-out: T174I DE EC50, MT4 cells, HIV-IIIb IN T174I DE (dose escalation), 5 days, CellTiter-Glo
Procedure: as §1, §2, §3, §4

SMILES | EC50 [1] [nM] | EC50 [2] [nM] | EC50 [3] [nM]
CCn1nc(C2CCN(C3CN(C(=O)OC)C3)CC2)c2cc(-c3nc4cc(C)c([C@H](OC(C)(C)C)C(=O)O)c(-c5ccc(Cl)cc5)c4s3)ccc21 [Compound 48, (S)-2-(tert-butoxy)-2-(7-(4-chlorophenyl)-2-(1-ethyl-3-(1-(1-(methoxycarbonyl)azetidin-3-yl)piperidin-4-yl)-1H-indazol-5-yl)-5-methylbenzo[d]thiazol-6-yl)acetic acid] | 70 | 8 | 165
CCn1nc(C2CCN([C@H]3CCN(C(=O)OC)C3)CC2)c2cc(-c3nc4cc(C)c([C@H](OC(C)(C)C)C(=O)O)c(-c5ccc(Cl)cc5)c4s3)ccc21 [Compound 49, (S)-2-(tert-butoxy)-2-(7-(4-chlorophenyl)-2-(1-ethyl-3-(1-((S)-1-(methoxycarbonyl)pyrrolidin-3-yl)piperidin-4-yl)-1H-indazol-5-yl)-5-methylbenzo[d]thiazol-6-yl)acetic acid] | 79 | 4 | 286
CCn1nc(C2CCN([C@@H]3CCN(C(=O)OC)C3)CC2)c2cc(-c3nc4cc(C)c([C@H](OC(C)(C)C)C(=O)O)c(-c5ccc(Cl)cc5)c4s3)ccc21 [Compound 50, (S)-2-(tert-butoxy)-2-(7-(4-chlorophenyl)-2-(1-ethyl-3-(1-((R)-1-(methoxycarbonyl)pyrrolidin-3-yl)piperidin-4-yl)-1H-indazol-5-yl)-5-methylbenzo[d]thiazol-6-yl)acetic Acid] | 74 | 4 | 276
Cc1cc2nc(-c3ccc4c(c3)c(C3=CCOC3)nn4C)sc2c(-c2ccc(Cl)cc2)c1[C@H](OC(C)(C)C)C(=O)O [Compound 51, (S)-2-(tert-butoxy)-2-(7-(4-chlorophenyl)-2-(3-(2,5-dihydrofuran-3-yl)-1-methyl-1H-indazol-5-yl)-5-methylbenzo[d]thiazol-6-yl)acetic acid] | 2720 | 15 | 3590
Cc1cc2nc(-c3ccc4c(c3)c(C3CN(C(=O)OC(C)(C)C)C3)nn4C)sc2c(-c2ccc(Cl)cc2)c1[C@H](OC(C)(C)C)C(=O)O [Compound 53, (S)-2-(tert-butoxy)-2-(2-(3-(1-(tert-butoxycarbonyl)azetidin-3-yl)-1-methyl-1H-indazol-5-yl)-7-(4-chlorophenyl)-5-methylbenzo[d]thiazol-6-yl)acetic acid] | 8910 | 45 | 57000
Cc1cc2nc(-c3ccc4c(c3)c(C3CN(C(C)C)C3)nn4C)sc2c(-c2ccc(Cl)cc2)c1[C@H](OC(C)(C)C)C(=O)O [Compound 54, (S)-2-(tert-butoxy)-2-(7-(4-chlorophenyl)-2-(3-(1-isopropylazetidin-3-yl)-1-methyl-1H-indazol-5-yl)-5-methylbenzo[d]thiazol-6-yl)acetic acid] | 1830 | 6 | 3290
Cc1cc2nc(-c3ccc4c(c3)c(C3CN(C(C)C)C3)nn4C)sc2c(-c2ccc(Cl)cc2)c1[C@H](OC1CC1)C(=O)O [Compound 55, (S)-2-(7-(4-chlorophenyl)-2-(3-(1-isopropylazetidin-3-yl)-1-methyl-1H-indazol-5-yl)-5-methylbenzo[d]thiazol-6-yl)-2-cyclopropoxyacetic Acid] | 372 | 36 | 1070
COCCN1CC(c2nn(C)c3ccc(-c4nc5cc(C)c([C@H](OC(C)(C)C)C(=O)O)c(-c6ccc(Cl)cc6)c5s4)cc23)C1 [Compound 56, (S)-2-(tert-butoxy)-2-(7-(4-chlorophenyl)-2-(3-(1-(2-methoxyethyl)azetidin-3-yl)-1-methyl-1H-indazol-5-yl)-5-methylbenzo[d]thiazol-6-yl)acetic acid] | 1390 | 4 | 2070
